Data reported in patent publication US9783488B2 (CHDI Foundation, Inc., priority 2013, dated 2017).
pIC50: −log10 of the molar value.

Key:
[1] = biological target: human catalytic domain HDAC4 protein (amino acids 648-1032) (Homo sapiens (Human), UniProt P56524); assay: Inhibition of HDAC4 catalytic domain enzymatic activity, fluorogenic substrate Boc-Lys(Tfa)-AMC; conditions: HDAC4 catalytic domain enzyme, read-out: Biochemical HDAC4 IC50
[2] = tested on: cellular histone deacetylase enzymatic activity in Jurkat E6-1 cells; assay: Inhibition of cellular HDAC activity in Jurkat E6-1 cells, fluorogenic substrate Boc-Lys(Tfa)-AMC; type: cell-based; conditions: Homo sapiens, read-out: Cell IC50
Method in brief: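 Jurkat E6.1 cells (75,000/well) were pre-treated with compound for 2 h at 37 °C, then given Boc-Lys(Tfa)-AMC (5× stock 500 μM) for 3 h. Cells were lysed with trypsin-containing buffer overnight, and released AMC fluorescence was read at Ex 355/Em 460 nm over a 16-point dilution series.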

Sequence of human catalytic domain HDAC4 protein (amino acids 648-1032) (P56524 648-1032): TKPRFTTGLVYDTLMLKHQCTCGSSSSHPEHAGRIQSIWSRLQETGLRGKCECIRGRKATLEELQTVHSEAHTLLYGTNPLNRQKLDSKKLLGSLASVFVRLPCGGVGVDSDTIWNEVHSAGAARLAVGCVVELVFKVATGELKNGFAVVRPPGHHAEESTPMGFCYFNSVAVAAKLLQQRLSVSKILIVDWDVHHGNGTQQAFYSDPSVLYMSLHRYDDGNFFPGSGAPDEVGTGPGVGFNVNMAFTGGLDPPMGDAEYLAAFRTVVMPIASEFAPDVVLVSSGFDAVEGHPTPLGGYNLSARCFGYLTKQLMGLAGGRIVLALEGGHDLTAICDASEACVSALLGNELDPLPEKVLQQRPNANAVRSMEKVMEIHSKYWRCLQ

Structure (SMILES)	pIC50 [1]	pIC50 [2]
Cc1ccccc1C1(C(=O)NO)CCCC1 [Example 24, N-Hydroxy-1-o-tolylcyclopentanecarboxamide]	6.14	5.09
COc1cccc(C2(C(=O)NO)CCCC2)c1C(F)(F)F [Example 33, N-Hydroxy-1-(3-methoxy-2-(trifluoromethyl)phenyl)cyclopentanecarboxamide]	< 4.30	< 4.30
Cc1c(F)cccc1[C@]1(C(=O)NO)CC[C@@H](c2cncc(F)c2)CC1 [Example 100, (1s,4s)-1-(3-Fluoro-2-methylphenyl)-4-(5-fluoropyridin-3-yl)-N-hydroxycyclohexanecarboxamide]	6.18	6.43
Cc1c(Cl)cccc1C1(C(=O)NO)CCCC1 [Example 17, 1-(3-chloro-2-methylphenyl)-N-hydroxycyclopentanecarboxamide]	6.55	5.60
Cc1c(F)cccc1[C@]1(C(=O)NO)CC[C@H](c2ccc3c(F)nn(C)c3c2)C1 (relative stereo) [Example 68, (1S,3S*)-3-(3-fluoro-1-methyl-1H-indazol-6-yl)-1-(3-fluoro-2-methylphenyl)-N-hydroxycyclopentanecarboxamide]	6.49	6.68
Cc1c(F)cccc1[C@]1(C(=O)NO)CC[C@H](c2ccc3nc(C4CC4)sc3c2)C1 (relative stereo) [Example 77, (1 S,3S*)-3-(2-cyclopropylbenzo[d]thiazol-6-yl)-1-(3-fluoro-2-methylphenyl)-N-hydroxycyclopentanecarboxamide]	6.51	6.38

The next compounds have a higher pIC50 [1] than those just listed; values first:

pIC50 [1]	pIC50 [2]	Structure (SMILES)
6.62	6.18	Cc1c(F)cccc1[C@]1(C(=O)NO)CC[C@H](OCc2ccc(F)cc2)C1 [Example 97, (1S,3S)-1-(3-fluoro-2-methylphenyl)-3-((4-fluorobenzyl)oxy)-N-hydroxycyclopentanecarboxamide]
6.72	5.91	Cc1c(F)cccc1C1(C(=O)NO)CCC(c2cccnc2)C1 (centres unmarked) [Example 1, 1-(3-fluoro-2-methylphenyl)-N-hydroxy-3-(pyridin-3-yl)cyclopentanecarboxamide]
6.80	6.08	Cc1c(F)cccc1[C@]1(C(=O)NO)CC[C@H](Oc2cncc(F)c2)C1 [Example 94, (1S,3S)-1-(3-fluoro-2-methylphenyl)-3-((5-fluoropyridin-3-yl)oxy)-N-hydroxycyclopentanecarboxamide]
6.80	6.62	Cc1c(F)cccc1[C@]1(C(=O)NO)CC[C@@H](c2nc3ccccc3s2)C1 (relative stereo) [Example 76, (1S,3R*)-3-(Benzo[d]thiazol-2-yl)-1-(3-fluoro-2-methylphenyl)-N-hydroxycyclopentanecarboxamide]
6.80	5.82	Cc1c(F)cccc1[C@]1(C(=O)NO)CC[C@@H](Oc2ccccc2)C1 [Example 95, (1S,3R)-1-(3-fluoro-2-methylphenyl)-N-hydroxy-3-phenoxycyclopentanecarboxamide]
6.96	6.89	Cc1c(F)cccc1[C@]1(C(=O)NO)CC[C@@H](c2ccc3ncn(C)c3c2)C1 (relative stereo) [Example 70, (1S,3R*)-1-(3-Fluoro-2-methylphenyl)-N-hydroxy-3-(1-methyl-1H-benzo[d]imidazol-6-yl)cyclopentanecarboxamide]
7.14	6.96	Cc1c(F)cccc1[C@]1(C(=O)NO)CC[C@@H](c2ccc3cnn(C(F)F)c3c2)C1 (relative stereo) [Example 54, (1S,3R*)-3-(1-(difluoromethyl)-1H-indazol-6-yl)-1-(3-fluoro-2-methylphenyl)-N-hydroxycyclopentanecarboxamide]
